Test results as given in article PMC8510812, “Studies on the Incompatibility between Bulbus fritillariae and Radix aconiti praeparata Based on the P-gp” (Evidence-based Complementary and Alternative Medicine : eCAM, 2021).
Where two headings read alike, the source gives them in different places.

How the values were obtained:
[1] = system: ileum; assay: Rat SPIP, Peff of monoester alkaloids in Radix aconiti praeparata extract with or without Bulbus fritillariae; type: in vivo; details: n = 6, Figure 3
Method: (§1) Rats were anaesthetized by an intraperitoneal injection of urethane and then placed on a heated pad. The small intestine was exposed by surgery. 10 cm of the ileum segment was ligated and cannulated with glass tubing for perfusion. Caroline et al. reported that the level of P-gp expression in rat ileum was the highest. In order to better reflect the characteristics of P-gp, we selected the ileum segment. The cannulated segment was rinsed with saline (37°C), and attached to the perfusion assembly consisted of a syringe pump and a 50 ml syringe. The selected ileum was placed as “U” shape and covered with the gauze wet by saline. The perfusate was collected every 10 min at a flow rate of 0.2 ml/min for 90 min. The perfused intestine segment was removed and opened along the mesentery to measure the area. Samples were frozen immediately and stored at -20°C until analysis. Digoxin, an exclusive substrate of P-gp, was chosen as the FDA guidelines.
The concentrations of drugs in SPIP experiment were determined by HPLC. A MS-C18 column (5 μm, 4.6 mm × 150 mm, Agilent, USA) with an analytical TC-C18 guard column (5 μm, 4.6 mm × 12.5 mm, Agilent, USA) was maintained at 30°C. The analytical mobile phase about digoxin consisted of water and acetonitrile in a 75 : 25 (v/v) ratio. Benzoylaconine, benzoylmesaconine, and benzoylhypacoitine consisted of 0.05% acetic acid and methanol in a gradient from 85 : 15 to 55 : 45 (v/v) ratio. The flow rate was 1 mL/min. The injection volume was 10 µL. Digoxin was detected by absorbance at 220 nm and benzoylaconine, benzoylmesaconine, and benzoylhypacoitine at 235 nm.
P eff was calculated by the following equation:(1) Peff=−QinlnCoutQout/CinQin/2πrL. Here, Qin and Qout were the flow rate at inlet and outlet, respectively. Cin and Cout were the concentration at inlet and outlet, respectively. 2πrL was the mass transfer surface area within the intestinal segment, which was assumed to be the area of the cylinder with the radius (r) and length (L).

[2] = system: P-gp; type: in vivo, rat; details: in the presence of verapamil, n = 6, Figure 10
Method: as §1
The concentrations of drugs in SPIP experiment were determined by HPLC. A MS-C18 column (5 μm, 4.6 mm × 150 mm, Agilent, USA) with an analytical TC-C18 guard column (5 μm, 4.6 mm × 12.5 mm, Agilent, USA) was maintained at 30°C. […] Digoxin was detected by absorbance at 220 nm and benzoylaconine, benzoylmesaconine, and benzoylhypacoitine at 235 nm.
P eff was calculated by the following equation:(1) Peff=−QinlnCoutQout/CinQin/2πrL. […]

[3] = biological target: T1, P-gp (Homo sapiens, UniProt P08183); type: cell-based; details: MDR1-MDCK cells, n = 3
T1 construct: host or cells: MDR1-MDCK cells
T1 sequence (P08183 whole entry): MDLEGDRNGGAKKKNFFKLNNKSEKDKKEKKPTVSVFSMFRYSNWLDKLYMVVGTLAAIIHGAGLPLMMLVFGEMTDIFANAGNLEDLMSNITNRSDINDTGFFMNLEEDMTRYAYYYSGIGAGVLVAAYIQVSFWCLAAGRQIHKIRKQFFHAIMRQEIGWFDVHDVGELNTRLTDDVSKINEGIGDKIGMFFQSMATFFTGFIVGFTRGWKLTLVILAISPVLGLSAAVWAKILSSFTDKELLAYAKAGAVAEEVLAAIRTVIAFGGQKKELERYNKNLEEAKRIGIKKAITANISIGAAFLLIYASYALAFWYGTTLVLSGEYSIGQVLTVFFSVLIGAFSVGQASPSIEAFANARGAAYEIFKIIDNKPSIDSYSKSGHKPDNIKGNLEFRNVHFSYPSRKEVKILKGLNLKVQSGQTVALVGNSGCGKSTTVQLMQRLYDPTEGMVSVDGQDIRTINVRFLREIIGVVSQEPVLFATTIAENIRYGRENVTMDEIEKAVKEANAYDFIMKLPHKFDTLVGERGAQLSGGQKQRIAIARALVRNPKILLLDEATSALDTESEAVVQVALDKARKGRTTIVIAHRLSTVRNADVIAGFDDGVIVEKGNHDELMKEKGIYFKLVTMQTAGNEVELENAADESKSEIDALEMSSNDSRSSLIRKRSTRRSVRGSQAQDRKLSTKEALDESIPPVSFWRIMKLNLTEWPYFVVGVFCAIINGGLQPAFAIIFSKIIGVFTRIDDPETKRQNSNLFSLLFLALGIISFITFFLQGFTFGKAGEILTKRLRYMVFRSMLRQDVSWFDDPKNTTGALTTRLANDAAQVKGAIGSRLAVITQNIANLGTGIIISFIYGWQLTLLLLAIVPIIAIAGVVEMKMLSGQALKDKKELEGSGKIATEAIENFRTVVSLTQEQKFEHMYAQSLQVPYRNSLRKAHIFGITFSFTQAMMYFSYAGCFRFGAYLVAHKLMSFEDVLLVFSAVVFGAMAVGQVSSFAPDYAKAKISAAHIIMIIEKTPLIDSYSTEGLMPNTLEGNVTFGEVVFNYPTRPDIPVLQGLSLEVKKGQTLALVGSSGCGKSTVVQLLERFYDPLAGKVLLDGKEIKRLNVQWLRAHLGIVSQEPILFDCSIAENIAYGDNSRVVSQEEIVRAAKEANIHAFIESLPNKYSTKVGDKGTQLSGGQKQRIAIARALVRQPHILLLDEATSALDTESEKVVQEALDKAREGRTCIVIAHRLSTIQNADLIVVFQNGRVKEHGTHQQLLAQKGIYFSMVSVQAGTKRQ
Method: MDR1-MDCK cells, obtained from the College of Pharmaceutical Sciences in Zhejiang University (China), were cultured in DMEM containing 10% FBS, 100 µg/mL-100 U/mL penicillin-streptomycin, and 1% NEAA at 37°C in an atmosphere of 5% CO2 and 95% relative humidity. Cells were passaged at 80%–90% conﬂuence. P-gp inhibitors were screened by MDR1-MDCK cell transport study using the calcein-AM kit. Briefly, the cells were seeded in a 96-well black opaque plate and cultured for 48 h. Then, the cells were washed twice with PBS. 100 µL drug and 50 µL culture medium was added and preincubated at 37°C for 10 min. 50 µL 1 µM calcein-AM was added and incubated at 37°C for 1 h. Cold PBS was used to terminate the reaction. 100 µL 0.1% Triton-100 was added for cell permeability.
RFR was calculated by (4) RFR=RFU TS/RFU CS×100%. Here, RFU TS was the RFU of the test sample and RFU CS was the RFU of the control sample.

SMILES	Peff of monoester alkaloid in Radix aconiti praeparata extract versus Radix aconiti praeparata + Bulbus fritillariae cirrhosae extract [1]	Peff of monoester alkaloid in Radix aconiti praeparata extract versus Radix aconiti praeparata + Bulbus fritillariae thunbergii extract [1]	Peff of monoester alkaloid in Radix aconiti praeparata extract versus that supplemented with verapamil [2]	RFR of calcein versus control group ([3]; high-dose group)	RFR of calcein versus control group ([3]; low-dose group)
CCN1C[C@]2(COC)[C@H](O)C[C@H](OC)[C@@]34[C@@H]5C[C@@]6(O)[C@H](OC(=O)c7ccccc7)[C@@H]5[C@@](O)([C@@H]([C@H](OC)[C@H]23)[C@@H]14)[C@@H](O)[C@@H]6OC [Benzoylaconine]	No significant differences	No significant differences	No significant differences		
COC[C@@]12CC[C@H](OC)[C@]34C([C@H]([C@H](OC)[C@H]13)[C@]1(O)[C@H]3[C@@H](OC(=O)c5ccccc5)[C@](O)(C[C@H]34)[C@@H](OC)[C@@H]1O)N(C)C2 [Benzoylhypacoitine]	No significant differences	No significant differences	No significant differences		
COC[C@]12CN(C)C3[C@@H]4[C@H](OC)[C@H]1[C@@]3([C@@H](OC)C[C@H]2O)[C@@H]1C[C@@]2(O)[C@H](OC(=O)c3ccccc3)[C@@H]1[C@]4(O)[C@@H](O)[C@@H]2OC [Benzoylmesaconine]	significant differences				
C[C@H]1CC[C@@H]2N(C1)C[C@H]1[C@@H]3C[C@H]4[C@@H](C[C@H](O)[C@H]5C[C@@H](O)CC[C@@]54C)[C@@H]3CC[C@@H]1[C@]2(C)O [Peimine]				highly significant differences	no significant differences
C[C@H]1CCC2N(C1)C[C@H]1C3CC4[C@@H](CC(=O)C5C[C@@H](O)CC[C@@]54C)C3CCC1[C@]2(C)O (stereo partly shown) [Peiminine]				no significant differences	no significant differences
CC1=C2C[C@H]3[C@@H](CC(=O)[C@H]4C[C@@H](O)CC[C@@]43C)[C@@H]2CC[C@]12O[C@@H]1C[C@H](C)CN[C@H]1[C@H]2C [Peimisine]				highly significant differences	highly significant differences
